From patent US5874471A, “Orthomolecular medical use of L-citrulline for vasoprotection, relaxative smooth muscle tone and cell protection” (priority 1997, dated 1999)
Like-named read-outs stand apart in the source and are kept apart here.

What was measured:
[1] = tested on: rabbit model of angioplasty; conditions: L-arginine hydrochloride 2.25% in drinking water; cited from earlier work
[2] = cited from earlier work
[3] = parenteral injection, rats; cited from earlier work
[4] = tested on: endothelium-dependent vasodilation; conditions: L-arginine infusion, humans with hypercholesterolemia; cited from earlier work
[5] = tested on: hypercholesterolemic rabbit models; conditions: sixfold enrichment of dietary L-arginine; cited from earlier work
human platelets = conditions: cited from earlier work; for inhibition of L-arginine uptake into platelets: 300 μM extracellular concentration, L-arginine 30 μM
[6] = tested on: renal vasodilatory responses; conditions: aged compared to young hypertensives; cited from earlier work
[7] = tested on: experimental diabetes mellitus; conditions: long-term oral administration in marked amounts; cited from earlier work
apoptosis = conditions: L-arginine-deficient (10 μM) environment; cited from earlier work
[8] = tested on: uterine muscle strips from gravid rats; conditions: L-arginine added to extracellular fluid; cited from earlier work
[9] = tested on: spermatocytes of infertile men; conditions: 4 to 20 grams of arginine daily, oral; cited from earlier work
[10] = tested on: cortical spreading depression; conditions: rat, in vivo; cited from earlier work
[11] = tested on: human semen specimens with low motility; conditions: between 1.0 and 4.0 mM, in vitro; cited from earlier work
[12] = rat; cited from earlier work
activated c-NOS = conditions: plasma L-arginine above normal fasting 75 to 90 μM; cited from earlier work
[13] = Plasma ultrafiltrate L-arginine level after oral L-citrulline (colorimetric assay); format: in vivo, human
Description: The one FIGURE contains graphs of plasma ultrafiltrate levels of L-arginine in the fasting state (9-10 hours) related to the daily amounts of L-citrulline ingested in two divided doses. Also depicted are levels 2-hours after ingestion of morning doses of L-citmulline (EXAMPLE 1).
A novel colorimetric method for the quantitative assay of free L-arginine in blood plasma was developed. The method measures the color product from monosubstituted guanidines without and with L-arginase incubation to destroy the arginine and the potential guanido color product that would be derived from L-arginine. The photometric decrease in guanido color product measures specifically the concentration of L-arginine. The L-arginine methodology was applied to ultrafiltrates of blood plasma after ultrafiltrations of separated plasma samples were done at 4° Celsius.
Blood plasma levels after 9 to 10 hours of overnight fasting averaged 83.0±1.1 μM (mean±SD of 3 determinations). Two hours after ingestion of 3.0 grams of L-citrulline in capsular form, plasma L-arginine level rose by […] to 132.7 μM. Overnight fasting plasma levels of L-arginine measured 125.2, 98.1, 90.8, 114.2, and 120.0 μM after ingestion of L-citrulline for 6 days at 6.0 grams, for 13 days at 2.4 grams, for 6 days at 3.4 grams, for 7 days at 6.8 grams, and for 2 days at 8.5 grams, respectively, in 2 divided doses (morning and nightly).
(§1) The subject cited in Example 1 and Example 2 above subsequently undertook oral supplementation with 4.5 grams of L-citrulline daily in 2 divided doses (morning and nightly) of 1.8 grams (in 2 capsules) and 2.7 grams (in 3 capsules) for 4 months. They continued their usual food intake. At the end of the 4-month period of supplementation with 4.5 grams daily, […] 9-hour overnight fasting plasma concentration of L-arginine measured at 102.3 μM, assayed in plasma within 30 minutes of venous blood sampling. This increased fasting plasma level contrasted from their lower normal fasting values of 83.0±1.1 μM measured months before, an increment about 20 μM greater.

[14] = Total forearm bleeding time during oral L-citrulline; format: in vivo, human
Description: The same subject that was studied in Example 1 was studied by total bleeding time determinations before and during ingestion of daily doses of L-citrulline, in two divided subdoses. Forearm bleeding times were done by 3 to 5 mm cuts about 1 mm deep made perpendicular to the fold of the elbow during template methodology and a sphygmomanometer cuff maintained near 40 mm Hg pressure. Control bleeding times were 51/2 minutes. Bleeding time rose to 131/2 minutes after 2 days of ingestion of 8.5 grams daily. Bleeding time was prolonged at 13 minutes after 4 weeks of ingestion of 5.4 grams of L-citrulline daily in 2 divided doses.

[15] = Tolerability of oral L-citrulline (symptoms, blood count, serum chemistry); format: in vivo, human
Description: (§2) Subsequently, the person cited in Example 4 followed an oral regimen of 3.6 grams of L-citrulline daily in two subdoses of 1.8 grams (morning and evening) for seven weeks. The frequency and intensity of the migraine pain episodes were reduced over this interval.
as §1
(§3) The apparent nootropic effects from oral intake of L-citrulline are consistent with the inventive beneficial effects of L-citrulline as exogenous precursor in order to improve brain functions that may be mediated by enhanced L-arginine, creatine, and phosphocreatine stores within the central nervous system.

lacunar infarction = assay: Recurrence of symptomatic lacunar infarction on daily citrulline; format: in vivo, human; conditions: 4.5 grams daily in two subdoses for many months
Description: Aspirin in small daily doses is commonly recommended as antiplatelet and antithrombotic agent in cardiovascular disease, particularly for the secondary prevention of coronary artery thrombosis and myocardial infarction, and for cerebrovascular ischemic manifestations such as lacunar infarctions. This subject had experienced, five-years earlier, an acute episodic event of symptomatic lacunar infarction with virtual recovery.

brain functions = assay: Mental alertness, intellectual performance and mental fatigue on L-citrulline; format: in vivo, human; conditions: 4.5 grams daily, 4 months
Description: as §1, §3

migraine pains = assay: Migraine pain with oral L-citrulline; format: in vivo, human
Description: […] Their body weight was 59 kg. The subject gave a history of migraine pains with and without aura for about 15 years. Currently, the migraine pains were recurring about once to a few times weekly. Their parent had experienced migraine headaches for many years.
Shortly after the onset of a severe headache attack, the subject ingested 2.7 grams of L-citrulline, followed by another 2.7 grams about 1 hour later.
as §2

[16] = in vivo; cited from earlier work
[17] = rat, in vivo; cited from earlier work
migraine aura = conditions: inhalation of small amounts, some cases; cited from earlier work
platelet activity = conditions: cited from earlier work; for total bleeding time: low-dose / small therapeutic doses orally, humans
osteoporosis = conditions: oral supplements in large amounts; cited from earlier work
hippocampal brain tissue = conditions: extracellular creatine increased by 3 mM; cited from earlier work
muscle fatigue = conditions: oral daily supplementation, healthy humans; cited from earlier work
[18] = 4-month regimen of 4.5 grams daily

Cl.N=C(N)NCCC[C@H](N)C(=O)O [L-arginine hydrochloride]
arterial thickening [1]: reduced thickening | increase of plasma arginine levels [1]: about 2.6 times | neoendothelium-dependent arterial muscle relaxation [1]: enhanced neoendothelium-dependent arterial muscle relaxation

N=C(N)NCCC[C@H](N)C(=O)O [L-arginine]
time to return to near fasting values ([2]; 24.8 grams L-arginine, normal adults): 3 h | peak plasma arginine relative to fasting values ([2]; 24.8 grams L-arginine, fasting 90±6 μM): about 3.6 times | plasma citrulline levels ([2]; oral 3-gram single doses of arginine, healthy humans): without a change in plasma citrulline levels | plasma arginine levels ([2]; oral 3-gram single doses, healthy humans): raises plasma arginine levels acutely | time of peak plasma arginine ([2]; single protein meal of about 30 to 50 grams (about 1 to 2 grams arginine)): 2 to 3 h | time to return to near fasting levels ([2]; single protein meal of about 30 to 50 grams): 5 to 6 h | time for plasma and tissue concentrations to return to normal [3]: 2 to 3 h | impaired endothelium-dependent vasodilation [4]: corrected | endothelial adhesiveness and atherogenesis [5]: markedly inhibits endothelial adhesiveness and atherogenesis | increase in plasma arginine levels [5]: twofold increase | nitric oxide-dependent vasodilation [5]: improves nitric oxide-dependent vasodilation | Km (human platelets; read-out: apparent Km for uptake into human platelets): 26 ± 4 µM | renal vasodilatory responses [6]: blunted in aged compared to young hypertensives | glomerular hyperfiltration and abnormal filtration fraction hemodynamics [7]: prevents the glomerular hyperfiltration | proteinuria [7]: ameliorates the proteinuria | protection from apoptosis (apoptosis): protects cells from apoptosis | muscle relaxation and quiescence [8]: dose-dependent muscle relaxation, and muscle quiescence | total sperm counts and motility rates [9]: may improve total sperm counts and motility rates | oligemic vasoconstriction following cortical spreading depression [10]: reduces the oligemic vasoconstriction | sperm motility [11]: enhances sperm motility in a concentration-dependent manner | brain tissue arginine level relative to plasma levels [12]: 20 to 30% | endothelial nitric oxide production (activated c-NOS): augments endothelial nitric oxide production

NC(=O)NCCC[C@H](N)C(=O)O [L-citrulline]
increment in fasting plasma L-arginine ([13]; 4 months at 4.5 grams daily vs 83.0±1.1 μM before): about 20 μM | metabolic adaptation to long-continued supplementation ([13]; 4 months, 4.5 grams daily): no significant metabolic adaptation | elevation of plasma L-arginine versus equivalent L-arginine or protein meals ([13]; comparison with literature): more efficient and longer lasting | blood plasma levels of L-arginine after overnight fasting (general statement) ([13]; daily dosage in two divided subdoses, 9 to 10 hours fasting): greater blood plasma levels of L-arginine even after overnight fasting | blood plasma concentrations of free L-arginine (general statement) ([13]; single oral doses of 3.0 grams or more in capsules): promptly raised to much higher levels | plasma L-arginine level rise ([13]; two hours after 3.0 grams L-citrulline in capsules, person, 102 kg, fasting 83.0±1.1 μM before): 62.4% | bleeding time ([14]; after 2 days of 8.5 grams daily, control 51/2 minutes): 131/2 | prolongation of total bleeding time ([14]; daily doses of 5.4 grams to 8.5 grams): about two-fold | adverse side-effects ([15]; 3.6 grams daily for seven weeks, person): No adverse side-effects | adverse symptoms [15, 18]: No adverse symptoms | complete blood count and blood serum chemistry tests [15, 18]: remained normal | adverse symptoms or untoward signs ([15]; Example 1 study, several weeks): No adverse symptoms or untoward signs | recurrence of lacunar infarction (lacunar infarction): No manifestations of recurrence | mental alertness and intellectual performance (brain functions): enhanced | mental fatigue (brain functions): less mental fatigue | migraine pain intensity and duration (migraine pains; 2.7 grams at onset plus 2.7 grams about 1 hour later): markedly lessened in intensity and in duration | nausea during migraine attack (migraine pains; 2.7 grams plus 2.7 grams about 1 hour later): Much less nausea | frequency and intensity of migraine pain episodes (migraine pains; 3.6 grams daily in two subdoses, seven weeks): reduced | blood-brain barrier passage [16]: readily passes the blood-brain barrier | liver uptake in portal venous blood [17]: Without appreciable liver uptake

NC(=O)CC[C@H](N)C(=O)O [L-glutamine]
inhibition of L-arginine uptake into platelets (human platelets): inhibitory

NCCCC[C@H](N)C(=O)O [L-lysine]
inhibition of L-arginine uptake into platelets (human platelets): inhibitory

NCCC[C@H](N)C(=O)O [L-ornithine]
inhibition of L-arginine uptake into platelets (human platelets): inhibitory

CCCCCON=O [amyl nitrite]
migraine aura (migraine aura): temporarily reversed migraine aura in some cases

CC(=O)Oc1ccccc1C(=O)O [aspirin, acetylsalicylic acid]
total bleeding time (platelet activity): prolonged | total bleeding time (platelet activity; listed as acetylsalicylic acid (aspirin)): prolongs the total bleeding time | platelet activity (platelet activity; low-dose intake in humans): inhibits platelet activity

O=C(O)O [calcium carbonate]
skeletal bone loss in osteoporosis (osteoporosis): decreased the skeletal bone loss

CN(CC(=O)O)C(=N)N [creatine]
ATP levels (hippocampal brain tissue): without change in ATP levels | anoxia-induced neuronal damage (hippocampal brain tissue): attenuated | neurocyte viability after anoxic periods (hippocampal brain tissue): greater neurocyte viabilities | neuronal free creatine and phosphocreatine levels (hippocampal brain tissue): large increases | muscle fatigue with physical exercise (muscle fatigue): lessened muscle fatigue | muscle stores of free creatine and phosphocreatine (muscle fatigue): greater muscle stores
